Results reported in ChEMBL document CHEMBL3991601, “The target landscape of clinical kinase drugs” (Science, 2017).
The source made the active and inactive calls.

Tests used:
[1] = molecular target: Calcium/calmodulin-dependent protein kinase kinase 2 (Homo sapiens, UniProt Q96RR4)
[2] = molecular target: Serine/threonine-protein kinase MRCK gamma (Homo sapiens, UniProt Q6DT37)
[3] = molecular target: T1, Serine/threonine-protein kinase D3 (Homo sapiens, UniProt O94806)
T1 sequence (O94806 whole entry): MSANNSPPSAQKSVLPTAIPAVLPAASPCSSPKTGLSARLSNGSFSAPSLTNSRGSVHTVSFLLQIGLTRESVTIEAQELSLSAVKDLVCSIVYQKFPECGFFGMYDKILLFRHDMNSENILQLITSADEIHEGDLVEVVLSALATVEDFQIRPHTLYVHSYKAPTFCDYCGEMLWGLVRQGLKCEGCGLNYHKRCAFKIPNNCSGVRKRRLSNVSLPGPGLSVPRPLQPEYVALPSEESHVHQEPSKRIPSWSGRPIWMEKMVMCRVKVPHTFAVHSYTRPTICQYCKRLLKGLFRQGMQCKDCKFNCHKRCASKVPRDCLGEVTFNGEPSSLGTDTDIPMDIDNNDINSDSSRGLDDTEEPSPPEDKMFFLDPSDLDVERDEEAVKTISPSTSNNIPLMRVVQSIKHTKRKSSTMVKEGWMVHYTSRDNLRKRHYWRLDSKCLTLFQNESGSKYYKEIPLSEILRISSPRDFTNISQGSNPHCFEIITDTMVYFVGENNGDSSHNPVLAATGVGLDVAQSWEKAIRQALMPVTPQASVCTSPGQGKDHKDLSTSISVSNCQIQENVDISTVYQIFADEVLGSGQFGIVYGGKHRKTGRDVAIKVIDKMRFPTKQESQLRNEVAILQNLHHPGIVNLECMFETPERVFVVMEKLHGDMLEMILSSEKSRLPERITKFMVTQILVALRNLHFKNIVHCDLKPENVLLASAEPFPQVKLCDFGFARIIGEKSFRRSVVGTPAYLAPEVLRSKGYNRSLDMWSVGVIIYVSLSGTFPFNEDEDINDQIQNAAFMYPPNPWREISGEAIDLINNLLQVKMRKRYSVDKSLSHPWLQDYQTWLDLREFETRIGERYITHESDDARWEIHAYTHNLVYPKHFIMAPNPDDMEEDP

[4] = molecular target: T2, Signal recognition particle receptor subunit alpha (Homo sapiens, UniProt P08240)
T2 sequence (P08240 whole entry): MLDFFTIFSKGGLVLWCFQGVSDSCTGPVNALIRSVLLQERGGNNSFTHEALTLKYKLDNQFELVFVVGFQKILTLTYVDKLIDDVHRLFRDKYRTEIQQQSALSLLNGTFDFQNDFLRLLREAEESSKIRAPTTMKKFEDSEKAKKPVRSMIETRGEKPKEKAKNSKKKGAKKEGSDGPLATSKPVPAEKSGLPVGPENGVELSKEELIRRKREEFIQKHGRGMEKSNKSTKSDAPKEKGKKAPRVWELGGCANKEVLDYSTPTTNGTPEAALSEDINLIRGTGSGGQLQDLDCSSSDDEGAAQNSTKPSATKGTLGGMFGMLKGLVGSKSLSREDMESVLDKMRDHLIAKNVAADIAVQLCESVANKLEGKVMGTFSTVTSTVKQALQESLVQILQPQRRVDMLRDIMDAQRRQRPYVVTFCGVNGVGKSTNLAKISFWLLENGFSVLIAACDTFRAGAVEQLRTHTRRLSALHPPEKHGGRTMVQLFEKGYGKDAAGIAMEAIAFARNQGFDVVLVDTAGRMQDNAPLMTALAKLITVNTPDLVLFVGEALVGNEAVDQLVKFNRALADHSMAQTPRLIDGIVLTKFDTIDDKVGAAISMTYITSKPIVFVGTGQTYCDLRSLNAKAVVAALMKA

[5] = molecular target: T3, Tyrosine-protein kinase Tec (Homo sapiens, UniProt P42680)
T3 sequence (P42680 whole entry): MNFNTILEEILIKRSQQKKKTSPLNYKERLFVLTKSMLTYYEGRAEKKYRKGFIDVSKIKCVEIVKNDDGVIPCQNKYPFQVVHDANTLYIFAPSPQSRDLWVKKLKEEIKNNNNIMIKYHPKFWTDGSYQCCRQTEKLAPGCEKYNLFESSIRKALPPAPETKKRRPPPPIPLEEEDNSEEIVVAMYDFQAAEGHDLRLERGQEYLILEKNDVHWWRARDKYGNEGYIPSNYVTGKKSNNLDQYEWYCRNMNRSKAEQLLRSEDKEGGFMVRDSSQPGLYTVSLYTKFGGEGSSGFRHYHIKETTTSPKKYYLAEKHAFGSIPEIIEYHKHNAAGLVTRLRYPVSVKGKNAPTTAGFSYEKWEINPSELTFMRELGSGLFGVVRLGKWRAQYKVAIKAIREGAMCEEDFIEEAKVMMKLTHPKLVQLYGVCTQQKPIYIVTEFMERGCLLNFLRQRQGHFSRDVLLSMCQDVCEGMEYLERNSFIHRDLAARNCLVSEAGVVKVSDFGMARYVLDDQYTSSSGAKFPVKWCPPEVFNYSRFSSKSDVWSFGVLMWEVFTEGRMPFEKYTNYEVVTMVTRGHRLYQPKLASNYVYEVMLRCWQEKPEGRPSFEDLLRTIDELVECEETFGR

[6] = molecular target: Guanine nucleotide-binding protein G(i) subunit alpha-2 (Homo sapiens, UniProt P04899)

Measured: Kd
Note: in the data inactive means no Kd found up to 30 µM.

Sequence of Serine/threonine-protein kinase MRCK gamma (Q6DT37 whole entry): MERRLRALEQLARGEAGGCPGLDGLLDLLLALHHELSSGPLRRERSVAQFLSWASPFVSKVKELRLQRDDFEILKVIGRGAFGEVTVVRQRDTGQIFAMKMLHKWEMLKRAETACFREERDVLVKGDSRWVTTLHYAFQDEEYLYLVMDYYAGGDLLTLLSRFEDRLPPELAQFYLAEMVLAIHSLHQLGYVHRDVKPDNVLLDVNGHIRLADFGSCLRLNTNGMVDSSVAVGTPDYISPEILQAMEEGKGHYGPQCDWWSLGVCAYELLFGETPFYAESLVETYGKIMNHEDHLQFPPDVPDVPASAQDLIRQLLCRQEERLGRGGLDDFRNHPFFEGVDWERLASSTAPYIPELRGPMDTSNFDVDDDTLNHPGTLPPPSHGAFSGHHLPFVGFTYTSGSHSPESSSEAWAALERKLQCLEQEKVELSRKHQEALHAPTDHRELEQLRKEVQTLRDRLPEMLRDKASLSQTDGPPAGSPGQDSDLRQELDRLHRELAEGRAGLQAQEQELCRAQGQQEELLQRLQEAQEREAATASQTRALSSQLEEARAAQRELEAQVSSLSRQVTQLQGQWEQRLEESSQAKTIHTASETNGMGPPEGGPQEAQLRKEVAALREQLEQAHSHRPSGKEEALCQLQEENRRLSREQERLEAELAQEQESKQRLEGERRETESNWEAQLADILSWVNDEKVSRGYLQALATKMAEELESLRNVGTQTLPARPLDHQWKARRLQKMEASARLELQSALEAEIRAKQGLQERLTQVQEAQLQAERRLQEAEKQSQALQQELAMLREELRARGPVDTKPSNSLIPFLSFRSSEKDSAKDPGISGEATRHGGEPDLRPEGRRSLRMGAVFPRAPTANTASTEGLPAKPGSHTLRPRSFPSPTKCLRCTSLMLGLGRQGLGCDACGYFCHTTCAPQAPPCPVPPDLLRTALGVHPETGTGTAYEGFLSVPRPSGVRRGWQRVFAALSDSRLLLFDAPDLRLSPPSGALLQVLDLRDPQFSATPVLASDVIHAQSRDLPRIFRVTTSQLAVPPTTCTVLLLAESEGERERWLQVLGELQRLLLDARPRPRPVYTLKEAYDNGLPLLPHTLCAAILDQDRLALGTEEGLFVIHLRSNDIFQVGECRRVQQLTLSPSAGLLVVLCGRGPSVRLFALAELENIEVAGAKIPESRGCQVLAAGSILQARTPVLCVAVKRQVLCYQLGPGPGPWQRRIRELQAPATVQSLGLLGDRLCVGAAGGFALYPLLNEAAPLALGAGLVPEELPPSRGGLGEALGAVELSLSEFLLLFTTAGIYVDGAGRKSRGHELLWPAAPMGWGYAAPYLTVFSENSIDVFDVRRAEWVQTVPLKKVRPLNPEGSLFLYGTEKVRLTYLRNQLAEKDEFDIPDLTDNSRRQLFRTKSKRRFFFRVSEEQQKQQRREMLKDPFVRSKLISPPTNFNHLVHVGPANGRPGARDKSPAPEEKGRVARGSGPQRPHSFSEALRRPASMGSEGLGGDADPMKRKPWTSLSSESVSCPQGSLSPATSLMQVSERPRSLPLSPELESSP
Sequence of Calcium/calmodulin-dependent protein kinase kinase 2 (Q96RR4 whole entry): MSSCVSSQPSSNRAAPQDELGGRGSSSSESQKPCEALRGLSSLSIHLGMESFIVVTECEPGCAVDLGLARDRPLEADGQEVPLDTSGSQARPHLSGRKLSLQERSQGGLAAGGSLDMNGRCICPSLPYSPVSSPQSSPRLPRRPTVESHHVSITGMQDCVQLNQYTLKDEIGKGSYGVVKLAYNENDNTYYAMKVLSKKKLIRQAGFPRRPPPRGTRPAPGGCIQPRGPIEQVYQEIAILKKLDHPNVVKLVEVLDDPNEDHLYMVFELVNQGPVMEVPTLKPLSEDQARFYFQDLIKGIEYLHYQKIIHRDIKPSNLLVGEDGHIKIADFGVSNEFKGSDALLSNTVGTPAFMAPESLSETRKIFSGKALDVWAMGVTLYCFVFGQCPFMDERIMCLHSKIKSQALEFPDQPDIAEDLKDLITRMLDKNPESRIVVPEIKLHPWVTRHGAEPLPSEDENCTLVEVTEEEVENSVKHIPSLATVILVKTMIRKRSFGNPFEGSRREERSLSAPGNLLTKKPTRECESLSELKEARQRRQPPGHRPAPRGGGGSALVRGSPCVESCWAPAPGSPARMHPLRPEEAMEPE
Sequence of Guanine nucleotide-binding protein G(i) subunit alpha-2 (P04899 whole entry): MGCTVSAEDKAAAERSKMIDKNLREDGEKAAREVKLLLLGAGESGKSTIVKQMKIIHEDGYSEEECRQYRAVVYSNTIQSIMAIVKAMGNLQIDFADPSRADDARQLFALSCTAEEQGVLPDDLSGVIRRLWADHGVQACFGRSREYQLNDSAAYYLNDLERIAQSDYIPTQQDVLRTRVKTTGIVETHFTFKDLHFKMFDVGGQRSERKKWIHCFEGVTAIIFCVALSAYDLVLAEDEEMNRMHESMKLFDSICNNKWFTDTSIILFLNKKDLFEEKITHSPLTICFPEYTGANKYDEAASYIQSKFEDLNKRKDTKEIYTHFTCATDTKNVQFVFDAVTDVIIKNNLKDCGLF

Cc1ccc(C(=O)Nc2ccc(Oc3cc4cnn(C)c4cc3-c3cn[nH]c3)c(F)c2)c(=O)n1-c1ccc(F)cc1 [MERESTINIB]
inactive: [1] > 30 µM | [2] > 30 µM | [3] > 30 µM | [4] > 30 µM | [5] > 30 µM

O=C(NOC[C@H](O)CO)c1ccc(F)c(F)c1Nc1ccc(I)cc1F [MIRDAMETINIB]
inactive: [1] > 30 µM | [2] > 30 µM | [3] > 30 µM | [4] > 30 µM | [5] > 30 µM

N#CCNC(=O)c1ccc(-c2ccnc(Nc3ccc(N4CCOCC4)cc3)n2)cc1 [MOMELOTINIB]
inactive: [1] > 30 µM | [2] > 30 µM | [6] > 30 µM | [4] > 30 µM | [5] > 30 µM

CC1(C)CNc2cc(NC(=O)c3cccnc3NCc3ccncc3)ccc21 [MOTESANIB]
inactive: [6] > 30 µM | [4] > 30 µM

CN(c1ncccc1CNc1nc(Nc2ccc3c(c2)CC(=O)N3)ncc1C(F)(F)F)S(C)(=O)=O [PF-00562271]
inactive: [2] > 30 µM | [6] > 30 µM | [4] > 30 µM | [5] > 30 µM

Cn1cnc2c(F)c(Nc3ccc(Br)cc3Cl)c(C(=O)NOCCO)cc21 [SELUMETINIB]
inactive: [6] > 30 µM | [4] > 30 µM

O=C(O)c1ccc2c(c1)nc(Nc1cccc(Cl)c1)c1ccncc12 [SILMITASERTIB]
inactive: [1] > 30 µM | [2] > 30 µM | [3] > 30 µM | [4] > 30 µM | [5] > 30 µM

C=CCN(/C=C1/C(=O)O[C@H](COC)[C@@]2(C)C1=C(O)C(=O)C1=C2[C@H](OC(C)=O)C[C@]2(C)C(=O)CC[C@@H]12)CC=C [SONOLISIB]
inactive: [1] > 30 µM | [6] > 30 µM | [3] > 30 µM | [5] > 30 µM

CC(C)(O)CC(=O)NCCn1ccc2ncnc(Nc3ccc(Oc4cccc(C(F)(F)F)c4)c(Cl)c3)c21 [TAK-285]
inactive: [1] > 30 µM | [2] > 30 µM | [6] > 30 µM | [4] > 30 µM | [5] > 30 µM

Cn1c(=O)c(F)c(Nc2ccc(I)cc2F)c2c(=O)n(C[C@@H](O)CO)cnc21 [TAK-733]
inactive: [1] > 30 µM | [2] > 30 µM | [3] > 30 µM | [4] > 30 µM | [5] > 30 µM

COc1cc2c(N3CCN(C(=O)Nc4ccc(OC(C)C)cc4)CC3)ncnc2cc1OCCCN1CCCCC1 [TANDUTINIB]
inactive: [4] > 30 µM

CNC(=O)c1cc(COc2nnc(Nc3ccc(Cl)cc3)c3ccoc23)ccn1 [TELATINIB]
inactive: [1] > 30 µM | [2] > 30 µM | [3] > 30 µM | [4] > 30 µM | [5] > 30 µM

C[C@@H]1COC(Nc2ccc3ncnc(Nc4ccc(OCc5nccs5)c(Cl)c4)c3c2)=N1 [VARLITINIB]
inactive: [1] > 30 µM | [2] > 30 µM | [3] > 30 µM | [4] > 30 µM | [5] > 30 µM

COc1cc2ncnc(Nc3ccc(O)cc3)c2cc1OC [WHI-P131]
inactive: [1] > 30 µM | [2] > 30 µM | [3] > 30 µM | [4] > 30 µM | [5] > 30 µM
